Experimental data published in patent US6911478B2, “Nitric oxide-releasing amidine- and enamine-derived diazeniumdiolates, compositions and uses thereof and method of making same” (The United States of America as represented by the …, priority 1997, dated 2005).

How the values were obtained:
Format in all cases: physicochemical
[1] = production of NO and N2O by amidine/nitric oxide adducts, headspace chemiluminescence (NO) and gas chromatography (N2O); settings: for Yield NO / Yield N2O: headspace; for Yield NO: chemiluminescence; for Yield N2O: gas chromatography
Source text: (§1) Nitrous oxide (N2O), being the end product of HNO dimerization and dehydration, provided a measure of HNO production via the equation (Nagasawa et al., J. Med. Chem. 33: 3122-3124 (1990)): [drawing 12]
This example describes the measurement of the production of NO and N2O by amidine/nitric oxide adducts.

[2] = gas evolution on dissolving in water and acidifying; settings: dissolved in water and acidified
Source text: as §1

[3] = time course of NO production in phosphate buffer pH 7.4 at 37° C., chemiluminescence detector; settings: phosphate buffer pH 7.4, 37° C.; for initial NO release rate: start of experiment
Description: This example describes the measurement of the time course of NO production by amidine and enamine nitric oxide adducts.
The NO release rate was measured periodically by flushing the solution with inert N2 gas and then sweeping newly generated NO into a chemiluminescence detector and integrating the signal produced over the next 4-7 mins. NO release was measured over a period of two weeks.
None of these compounds released nitric oxide via a single pathway which produced a release profile consistent with first order kinetics. Accordingly, the results of each test are summarized here by giving the initial NO release rate, the rate at one intermediate timepoint and the total time of observed NO release for representative examples.

In the case of “2-iminopiperidine bis(nitric oxide)adduct [Example 4]”, the “Yield NO” value ([1]; pH 7.4 buffer) is reported as −0.08 moles per mole cmpd and the “Yield N2O” value ([1]; pH 7.4 buffer) is reported as 0.45 moles per mole cmpd.
For “2-methyl-2-imidazoline tetrakis(nitric oxide)adduct [Example 2]”, the “Yield NO” value ([1]; 0.1 N HCl) was 0.45 moles per mole cmpd, the “Yield N2O” value ([1]; 0.1 N HCl) was 0.9 moles per mole cmpd and the “composition of evolving gas (NO and N2O)” value ([1]; pH 7.4, NO by chemiluminescence, N2O by gas chromatography) was 2 parts NO (determined by chemiluminescence) and 1 part N2O. For the same molecule, the gas evolution [2] was “voluminous gas evolution”.
With `O=NN(O)C1(C2=NCCN2)CCCCC1` [Example 5, 2-cyclohexyl-2-imidazoline bis(nitric oxide)adduct] the “Yield N2O” value ([1]; 0.1 N HCl) was 0.2 moles per mole cmpd.
In the case of “acetamidine tetrakis (nitric oxide) adduct [Example 3]”, the “Yield NO” value ([1]; pH 7.4 buffer) is reported as 0.05 moles per mole cmpd and the “Yield N2O” value ([1]; pH 7.4 buffer) is reported as 0.64 moles per mole cmpd.
With “cyclohexanone morpholine enamine bis(nitric oxide) adduct [Example 9]” the “NO release profile, kinetic order” value [3] was “nearly first order kinetics”, the “time at which NO release reached zero” value [3] was ≤ 7 days and the “NO release rate after 3 days” value ([3]; after 3 days) was 1.8×10^−11 mole NO/min./mg. The “initial NO release rate” value [3] was 4.2×10^−11 moles NO/min./mg.
For “idazoxan-bis(nitric oxide) adduct [Example 7]”, the “time at which NO release reached zero” value [3] was ≤ 16 days, the “NO release rate after 4 days” value ([3]; after 4 days (gradually increased)) was 1.41×10^−10 moles NO/min./mg and the “initial NO release rate” value [3] was 5.25×10^−11 moles NO/min./mg.
For “isobutyraldehyde morpholine enamine bis (nitric oxide) adduct [Example 10]”, the “time at which NO release reached zero” value [3] was 7 days, the “initial NO release rate” value [3] was 3.7×10^−11 moles NO/min./mg and the “NO release rate after rapid decrease” value ([3]; remained at about this level for 4 days) was 7.0×10^−12 mole NO/min./mg.
For “tetrahydrozoline bis(nitric oxide)adduct [Example 6]”, the “total time of observed NO release (in words)” value [3] was “continued for several weeks”, the “NO release rate, last quantitative measurement” value ([3]; 15 days after the beginning) was 9.00×10^−12 moles NO per min. per mg and the “NO release rate after 7 days” value ([3]; after 7 days) was 2.06×10^−11 moles NO per min. per mg. The “initial NO release rate” value [3] was 3.64×10^−11 moles NO/min./mg.
